Assay results taken from US9567623B2, “Coelenterazine analogs” (JNC CORPORATION, priority 2013, dated 2017).

Experiments:
[1] = target: T1, nanoKAZ (mutated catalytic 19 kDa domain of Oplophorus luciferase) (Oplophorus gracilirostris, UniProt Q9GV45, A31E/A60N/A81I/F95D/I117V/K70R/L54V/L99Q/M102K/N193R/P142E/Q151K/Q38R/Q45L/V71I/Y165I); assay: Luminescence activity of secreted codon-optimized nanoKAZ domain protein with coelenterazine analogs as substrates; type: biochemical; conditions: for Relative maximum luminescence intensity (Imax) / Relative amount of integrated luminescence intensity (1 min.): relative to coelenterazine = 1.0; for Relative maximum luminescence intensity (Imax): 1 μg substrate, 50 mM Tris-HCl (pH 7.6)-10 mM EDTA, 60 seconds; for Relative amount of integrated luminescence intensity (1 min.): integrated for 60 seconds; for Luminescence pattern (decay): FIG. 3, recombinant nanoKAZ
T1 construct: secretory signal peptide of Gaussia luciferase (GLsp) (N, cleaved yes); made in house; host or cells: CHO-K1 transiently transfected with pcDNA3-GLsp-nanoKAZ; unpurified culture medium used as the enzyme solution
Method: The Chinese hamster ovary-derived cell line CHO-K1 was cultured in Ham's F-12 medium (manufactured by Wako Pure Chemical Industries, Ltd.) containing 10% (v/v) calf fetal serum (manufactured by Biowest Inc.), and cultured in DMEM (manufactured by Wako Pure Chemical Industries, Ltd.) containing 10% (v/v) calf fetal serum (manufactured by Biowest Inc.). The respective cells were seeded in a 6-well culture plate (n=2) with 1×10^5 cells/well/2 mL medium, and cultured in an incubator at 37° C. in 5% CO2, respectively. After 24 hours, the purified pcDNA3-GLsp-nanoKAZ plasmid was transfected into CHO-K1 cells using a FuGene HD Transfection Kit (manufactured by Promega Corp.), which was used in the subsequent experiment. Specifically, 1 μg of the pcDNA3-GLsp-nanoKAZ expression vector and 3 μL of FuGene HD were added to 100 μL of medium, which was allowed to stand at room temperature for 15 minutes. Then 100 μL of the DNA-FuGene complex solution was added to the cells in the 6 wells. After incubation for 48 hours, the culture medium was recovered and used as the secreted nanoKAZ enzyme solution for assay.
The enzyme solution, 5 μL, for assay obtained in EXAMPLE 4 (2) was added to 100 pt of 50 mM Tris-HCl (pH 7.6)-10 mM EDTA (Wako Pure Chemical Industries) containing 1 μg each of various coelenterazine analogs to initiate the luminescence reaction. The luminescence activity was determined by a luminometer (AB2200, manufactured by Atto Company) for 60 seconds and expressed by the maximum luminescence intensity (Imax) and the relative light units (du) of the lumimescence intensity integrated for 60 seconds.
The coelenterazine analogs used for substrate specificity analysis except for the analog described in EXAMPLE 1 were synthesized by the methods as described in the journals below, respectively. Specifically, bis-coelenterazine was synthesized by the method described in Nakamura et al. (1997) Tetrahedron Lett. 38: 6405-6406; Furimazine (Compound No. 3939 referred to in the journal) and C6d-coelenterazine (Compound No. 3840 referred to in the journal) by the method described in Hall et al. (2012) ACS Chem. Biol. […]; and the C2-coelenterazine analogs by the method described in Inouye et al (2010) Anal. Biochem. 407: 247-252. The enzyme solution of the culture medium in which nanoKAZ was secreted by the method as described in EXAMPLE 4 (2) was used for determining the luminescence activity with coelenterazine or its analogs. […] As a result, the luminescence substrates which can markedly improve the luminescence intensity and the amount of the integrated luminescence intensity to compare with furimazine are bis-coelenterazine and C6d-f-coelenterazine, showing a continuous luminescence without a decay of the luminescence intensity.

[2] = target: T2, Catalytic 19 kDa domain of Oplophorus luciferase (Oplophorus gracilirostris, UniProt Q9GV45); assay: Substrate specificity of various luciferases: catalytic 19 kDa domain of Oplophorus luciferase; type: biochemical, Oplophorus grachlorostris; conditions: for Maximum Luminescence Intensity (Imax, %) / Relative Amount of Integrated Luminescence Intensity (1 min, %): relative to coelenterazine = 100
T2 construct: The catalytic 19 kDa domain of Oplophorus luciferase was produced by the method described in; made in house
Method: (§1) The preparation of various luciferases and the determination of their luminescence activities were carried out in accordance with the methods as previously reported. The catalytic 19 kDa domain of Oplophorus luciferase was produced by the method described in Inouye S. & Sasaki S. (2007) Protein Express. Purif. 56, 261-268, Gaussia luciferase by the method described in Inouye S & Sahara Y. (2008) Biochem. Biophys. Res. Commun. 368, 600-605, Renilla luciferase and Renilla luciferase 547 by the method described in Inouye S. et al. (2013) Protein Express. Purif. 88, 150-156, and aequorin by the method described in Inouye S et al. (2010) Anal. Biochem. 407, 247-252, respectively, and used.

[3] = test system: Gaussia luciferase; assay: Substrate specificity of various luciferases: Gaussia luciferase; type: biochemical; conditions: relative to coelenterazine = 100
Method: as §1

[4] = target: T3, Renilla luciferase (Renilla reniformis, UniProt P27652); assay: Substrate specificity of various luciferases: Renilla luciferase; type: biochemical; conditions: relative to coelenterazine = 100
T3 construct: made in house
T3 sequence (P27652 1-311): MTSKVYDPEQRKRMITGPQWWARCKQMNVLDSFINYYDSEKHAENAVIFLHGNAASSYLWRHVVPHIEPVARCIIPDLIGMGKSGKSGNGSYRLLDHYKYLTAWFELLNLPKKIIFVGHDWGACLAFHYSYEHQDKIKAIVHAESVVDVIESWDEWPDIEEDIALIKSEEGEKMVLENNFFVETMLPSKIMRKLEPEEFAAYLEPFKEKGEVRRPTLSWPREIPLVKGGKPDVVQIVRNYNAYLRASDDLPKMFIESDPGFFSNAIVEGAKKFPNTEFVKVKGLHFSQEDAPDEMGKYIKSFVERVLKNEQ
Method: as §1

[5] = test system: Renilla luciferase 547; assay: Substrate specificity of various luciferases: Renilla luciferase 547; type: biochemical; conditions: relative to coelenterazine = 100
Method: as §1

[6] = target: T4, Aequorin (Aequorea victoria, UniProt P07164); type: biochemical, jellyfish; conditions: relative to coelenterazine = 100
T4 construct: made in house
Method: as §1

[7] = Stability of coelenterazine analogs in aqueous solution (HPLC); type: physicochemical; conditions: 30 mM Tris-HCl (pH 7.6)
Method: The stability of coelenterazine analogs in an aqueous solution was examined by dissolving 10 μg of coelenterazine analogs in 0.5 mL of 30 mM Tris-HCl (pH 7.6), allowing the solution to stand at 37° C. for 22 hours, and then the degradation of coelenterazine analogs was determined by HPLC analysis. The HPLC analysis was performed by the modified method as described in Inouye S. et al. (2013) Protein Express. Purif. 88, 150-156.

[8] = incubation time at 37° C. 0 hour
[9] = incubation time at 37° C. 22 hours

T4 sequence (P07164 8-196): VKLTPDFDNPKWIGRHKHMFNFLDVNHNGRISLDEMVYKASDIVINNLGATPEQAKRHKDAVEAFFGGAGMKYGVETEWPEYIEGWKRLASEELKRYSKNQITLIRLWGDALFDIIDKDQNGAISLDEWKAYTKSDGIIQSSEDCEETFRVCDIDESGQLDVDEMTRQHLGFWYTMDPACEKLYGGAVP
T1 sequence (Q9GV45 other isoform, or with tags, fused parts or gaps with the stated changes): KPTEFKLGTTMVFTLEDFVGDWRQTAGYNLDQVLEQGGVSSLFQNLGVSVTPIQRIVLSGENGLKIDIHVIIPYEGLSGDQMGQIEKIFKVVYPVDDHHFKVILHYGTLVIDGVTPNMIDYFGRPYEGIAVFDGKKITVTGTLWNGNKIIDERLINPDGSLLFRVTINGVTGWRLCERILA
T2 sequence (Q9GV45 28-196): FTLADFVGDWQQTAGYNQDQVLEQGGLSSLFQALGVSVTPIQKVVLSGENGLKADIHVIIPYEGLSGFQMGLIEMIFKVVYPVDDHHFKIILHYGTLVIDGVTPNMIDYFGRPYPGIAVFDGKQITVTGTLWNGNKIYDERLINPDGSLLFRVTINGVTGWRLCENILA

Molecule | Relative maximum luminescence intensity (Imax) [1] | Relative amount of integrated luminescence intensity (1 min.) [1] | Maximum Luminescence Intensity (Imax, %) [2] [%] | Relative Amount of Integrated Luminescence Intensity (1 min, %) [2] | Maximum Luminescence Intensity (Imax, %) [3] [%] | Relative Amount of Integrated Luminescence Intensity (1 min, %) [3] | Maximum Luminescence Intensity (Imax, %) [4] [%] | Relative Amount of Integrated Luminescence Intensity (1 min, %) [4] | Maximum Luminescence Intensity (Imax, %) [5] [%] | Relative Amount of Integrated Luminescence Intensity (1 min, %) [5] | Maximum Luminescence Intensity (Imax, %) [6] [%] | Relative Amount of Integrated Luminescence Intensity (1 min, %) [6] | Luminescence pattern (decay) [1] | Residual Ratio of Coelenterazine Analog (%) [7, 8] [%] | Residual Ratio of Coelenterazine Analog (%) [7, 9] [%] | Suitability as substrate ([2]; in words, from TABLE 2)
C6d-coelenterazine | 0.8 | 0.7 | 9.0 | (7.7) % | 0.8 | (0.8) % | 0.02 | (0.02) % | 0.12 | (0.12) % | 0.03 | (0.03) % |  |  |  | 
O=c1c(Cc2ccc(F)cc2)nc2c(Cc3ccccc3)[nH]c(-c3ccc(O)cc3)cn1-2 [f-Coelenterazine] | 19.5 | 11.1 | 78.6 | (85.7) % | 5.0 | (10) % | 65.3 | (71.4) % | 78.0 | (68.1) % | 42.3 | (59.0) % |  |  |  | 
Oc1ccc(-c2cn3c(O)c(Cc4ccccc4)nc3c(Cc3ccccc3)n2)cc1 [h-Coelenterazine] | 17.0 | 10.1 | 92.6 | (101) % | 8.2 | (12.1) % | 68.5 | (73.5) % | 24.5 | (16.4) % | 84.0 | (68.0) % |  |  |  | 
bis-coelenterazine | 10.3 | 9.7 | 108 | (102) % | 0 | (0) % | 0.04 | (0.03) % | 0.07 | (0.08) % | 0.01 | (0.01) % | did not exhibit a rapid decay | 100 | 38 | 
O=c1c(Cc2ccc(F)cc2)nc2c(Cc3ccccc3)[nH]c(-c3ccccc3)cn1-2 [C6d-f-Coelenterazine, C6d-f-coelenterazine] | 10.1 | 10.1 | 100 | (105) % | 0 | (0) % | 0.07 | (0.01) % | 0.17 | (0.13) % | 0.12 | (0.19) % | did not exhibit a rapid decay | 100 | 49 | good substrate
coelenterazine [Coelenterazine (CTZ)] | 1.0 | 1.0 | 100 | (100) % | 100 | (100) % | 100 | (100) % | 100 | (100) % | 100 | (100) % |  | 100 | 2 | 
O=c1c(Cc2ccco2)nc2c(Cc3ccccc3)[nH]c(-c3ccccc3)cn1-2 [Furimazine] | 5.5 | 5.7 | 72.2 | (65.2) % | 0 | (0) % | 0.01 | (0.01) % | 0.01 | (0.01) % | 0.02 | (0.02) % | did not exhibit a rapid decay | 100 | 3 | 
